Assay results from US12108762B2, “Methods of controlling crop pests using aromatic amide insect repellents, methods of making aromatic amide insect repellents, and novel aromatic amide insect repellents” (priority 2020, dated 2024).

How the values were obtained:
Drosophila melanogaster [1] = assay: One-choice (single-trap) olfactory trap assay; format: in vivo; conditions: for repellency compared with DEET, one-choice trap assay: 25 μl of 25% by weight in DMSO on filter paper, 10% ACV attractant, 6 hours (FIG. 10) and 24 hours (FIG. 13); for fly death during the 6-hour screen: starved flies
Procedure: (§1) The D. melanogaster assays served as a model for SWD repellency. Forty different aromatic amides were studied at a 25% concentration by weight in DMSO, and the fruit fly chemosensory behaviors in response thereto were characterized. […]
(§2) Flies were monitored throughout their life cycle. Five-day-old flies (10 male and 10 females) were selected per assay, and starved for a predetermined length of time (e.g., 20 hours). After starvation, two different assays were used to study the olfactory related responses.
FIG. 7A is a diagram of a single-trap olfactory assay. Flies 105 were placed in a cylindrical chamber 100 containing a trap 110. The trap 110 was fashioned from an upturned 1.5 ml micro-centrifuge tube where the tapered end was trimmed away. A pipette tip 120 was cut to form a funnel and inserted into the bottom of the inverted micro-centrifuge tube 110. Then, filter paper 130 was placed between the pipette tip 120 and tip of micro-centrifuge tube 110. The pipette tip 120 was placed so that entering flies could not make physical contact with the filter paper 130. The filter paper 130 was placed in this manner so that when the filter paper 130 was treated with the repellent solution, the flies would only be able to smell at a distance and should be repelled even in the presence of an attractant.
A 25 μl sample of test compound at 25% concentration was applied to the filter paper 130 in order to provide the odor source. At the bottom of the trap 110, 125 μl of 10% apple cider vinegar (ACV) was placed as an attractant. Trials were conducted for 24 hours to visualize the number of flies 105 entering the trap 110. Typically, flies that entered the trap 110 contacted the liquid ACV and died in the ACV. Flies were counted and recorded at 4, 6, and 24 hours. No control other than DEET was used for this experiment, because it was a single trap, comparing the number of flies 105 repelled by the repellent versus the number of flies 105 interacting with the attractant (ACV).
(§3) The different assays assigned results as follows. For the single-choice olfactory assay, the numbers of flies were counted according to (1) those that entered the trap, (2) those that stayed outside the trap and lived, and (3) those that died outside the trap. For the two-choice olfactory assay, the numbers of flies were counted according to (1) those that entered the control trap, (2) those that entered the trap containing the repellent, (3) those that stayed outside of both traps and lived, and (4) those that died outside the traps. For the gustatory assay, the numbers of flies were counted according to those that had (1) a red-colored abdomen, (2) a blue-colored abdomen, (3) a purple abdomen, and (4) no added color to their abdomen. A nonparametric Mann-Whitney U test was used to compare the statistical differences between assays using DEET and the same assays using one of the present repellents for all trials.

Drosophila melanogaster [2] = assay: Two-choice trap olfactory assay; format: in vivo; conditions: for trap preference (control trap versus repellent-treated trap): DMSO control vs 25 μl of 25% by weight in DMSO
Procedure: as §1, §2
FIG. 7B is a diagram of a 2-choice trap olfactory assay. Two ACV traps 110a-b were prepared as above, in a cylinder 150 from upturned 1.5 ml micro-centrifuge tubes with the tapered end trimmed away, and a pipette 120a-b inserted into the inverted micro-centrifuge tube. In the cylinder 150, one trap 110a was treated with 25 μl of DMSO (as a control) on the filter paper 135, and the other trap 110b with the 25 μl of the 25% by weight solution of the test compound in DMSO applied to the filter paper 130. 125 μl of 10% ACV, diluted with water, was placed in the bottom of the traps 110a-b. Both traps contained filter paper as prepared in the one-trap assay. All trials were screened for 24 hours, and the number of flies 105 in each trap was counted. Positions of the traps (i.e., left or right, relative to the location of the chamber 150 in the room) were randomized. The number of flies 105 in each trap 110a and 110b were counted and recorded at 4, 6 and 24 hours.
as §3

Drosophila melanogaster [3] = assay: Habituation assay (prior exposure, then olfactory and gustatory screens); format: in vivo; conditions: for habituation of fruit flies, overall (olfactory and gustatory assays): post-exposure; for repellency after prior exposure, gustatory assay: prior exposure 25% by weight, gustatory screen at 5 mM
Procedure: In the gustatory assay, the consumption of sugar (from a solution in a gel) treated at varying concentrations of the present repellent compounds was compared to the consumption of control-treated sugar. For the habituation assay, flies were tested over repeated exposures to the present repellent compounds to measure changes in behavioral preference for the compounds.
Flies were continuously monitored throughout their lifetime. In this assay, 3- to 5-day-old flies (70 male and 70 female) were selected and transferred to an empty fly food container 320 (FIG. 9). The polystyrene foam cap 310 was treated with 50 μL of 25% by weight of the present aromatic amide repellent in DMSO. A thin porous material 330 was placed around the treated cap 310, with a gap between the cap 310 and the material 330 so that the flies cannot touch the treated cap 310, but can only smell it. […] After the 20-hour period, the flies were screened in the olfactory assay and gustatory assays above. In the olfactory assay, the number of flies in the trap, the number of flies outside the trap, and the number of flies that died outside the trap were counted as described herein, and in the gustatory assay, the color of the flies' abdomens were determined and counted, as described herein.
as §3

Or83b = target: T1, Or83b (Drosophila melanogaster, UniProt Q9VNB5); assay: Olfactory assays with receptor-modified (Or83b knockdown) flies; format: in vivo, fruit flies; conditions: for effectiveness with receptor-modified flies, one-choice trap olfactory assay: compared with assays with unmodified flies; for Or83b and Gr33a requirement for detection of the compound: fruit flies; for Or83b and Gr33a requirement for detection of the compound / effectiveness as repellent with Or83b-modified flies above the knockdown temperature: olfactory assays; for effectiveness as repellent with Or83b-modified flies above the knockdown temperature: compared with unmodified flies
T1 construct: endogenous in cells; host or cells: whole living fruit flies (behavioural olfactory assays)
T1 sequence (Q9VNB5 1-486): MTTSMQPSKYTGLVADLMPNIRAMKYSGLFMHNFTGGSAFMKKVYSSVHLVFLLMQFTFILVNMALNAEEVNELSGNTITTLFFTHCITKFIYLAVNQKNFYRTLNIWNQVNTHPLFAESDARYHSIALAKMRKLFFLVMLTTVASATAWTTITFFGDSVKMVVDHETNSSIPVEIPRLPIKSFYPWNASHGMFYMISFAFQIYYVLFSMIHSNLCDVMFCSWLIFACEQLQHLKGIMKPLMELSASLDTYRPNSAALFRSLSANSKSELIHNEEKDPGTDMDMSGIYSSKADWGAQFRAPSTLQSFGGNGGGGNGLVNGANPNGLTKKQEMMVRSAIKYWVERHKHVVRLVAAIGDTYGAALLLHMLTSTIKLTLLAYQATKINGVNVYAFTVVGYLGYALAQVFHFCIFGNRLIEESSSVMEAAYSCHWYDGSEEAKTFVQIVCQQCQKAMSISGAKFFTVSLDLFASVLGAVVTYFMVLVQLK
Procedure: (§4) The neurophysiological mechanisms of repellency were analyzed using receptors that are essential for DEET detection, Or83b and Gr33a. […] These receptors also play a role in the repellency of the most promising of the present aromatic amide compounds.

Gr33a = target: T2, Gr33a (Drosophila melanogaster, UniProt Q9VKA5); assay: Gustatory assay with receptor-modified (Gr33a knockdown) flies; format: in vivo, fruit flies
T2 construct: endogenous in cells; host or cells: whole living fruit flies (behavioural gustatory assay)
T2 sequence (Q9VKA5 1-475): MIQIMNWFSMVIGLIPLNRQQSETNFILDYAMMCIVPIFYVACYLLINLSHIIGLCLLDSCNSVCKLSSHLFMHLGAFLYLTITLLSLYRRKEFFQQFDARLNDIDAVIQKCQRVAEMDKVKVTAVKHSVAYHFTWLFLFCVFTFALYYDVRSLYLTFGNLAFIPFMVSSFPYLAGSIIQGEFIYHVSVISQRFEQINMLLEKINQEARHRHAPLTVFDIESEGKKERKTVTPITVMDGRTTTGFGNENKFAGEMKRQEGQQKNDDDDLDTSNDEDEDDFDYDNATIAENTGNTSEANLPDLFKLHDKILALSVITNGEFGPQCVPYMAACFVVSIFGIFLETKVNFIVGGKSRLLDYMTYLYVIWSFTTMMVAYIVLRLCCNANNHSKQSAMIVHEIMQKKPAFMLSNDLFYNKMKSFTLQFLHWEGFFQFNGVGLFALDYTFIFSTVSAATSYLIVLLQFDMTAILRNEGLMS
Procedure: as §4

mosquito = mosquito repellent; cited from earlier work
[4] = tested on: odorant receptor CquiOR136; conditions: southern house mosquito; cited from earlier work
[5] = one-choice trap, 25% concentration
[6] = one-choice trap, 25% concentration, 6 hours

| SMILES | repellency compared with DEET, one-choice trap assay (Drosophila melanogaster [1]) | ranking among repellents in the one-choice assay (Drosophila melanogaster [1]; [5]) | fly death during the 6-hour screen (Drosophila melanogaster [1]; [6]) | participation in choosing either trap (Drosophila melanogaster [2]; 25% by weight, 6 hours) | trap preference (control trap versus repellent-treated trap) (Drosophila melanogaster [2]; 6 hours) | habituation of fruit flies, overall (olfactory and gustatory assays) (Drosophila melanogaster [3]) | repellency after prior exposure, gustatory assay (Drosophila melanogaster [3]) | effectiveness with receptor-modified flies, one-choice trap olfactory assay (Or83b) | Or83b and Gr33a requirement for detection of the compound (Or83b) | effectiveness as repellent with Or83b-modified flies above the knockdown temperature (Or83b) | preference of receptor-modified flies for the compound, olfactory assays (Or83b) | preference for repellent-treated food source post-knockdown, gustatory assay (Gr33a) | further results |
| --- | --- | --- | --- | --- | --- | --- | --- | --- | --- | --- | --- | --- | --- |
| O=C(c1cccc(F)c1)N1CCCC1 [Compound 2mB, N-[m-fluorobenzoyl]pyrrolidine] | more effective than DEET | most effective repellents | no fly death | less overall participation | preference for the control trap | demonstrated habituation in at least one assay | significantly less repellency | significantly less effective | required | significantly less effective | much higher preference | increased preference | aversion (no flies entering the single-choice trap) (Drosophila melanogaster [1]; [5]): 100%; repellency (Drosophila melanogaster [1]; [6]): significant repellency; average number of flies that chose a trap in 6 hours (Drosophila melanogaster [2]; 25% by weight, 20 flies per assay, 6 hours): 4 flies; repellency after prior exposure, one-choice trap olfactory assay (Drosophila melanogaster [3]; prior exposure to 25% by weight repellent for 20 hours, compared with earlier assay): worse at repelling insects after prior exposure; effectiveness with receptor-modified flies, gustatory assay (Gr33a; compared with unmodified flies): significantly less effective |
| CN1CCN(C(=O)c2ccccc2F)CC1 [Compound 2oE, 1-methyl-4-[o-fluorobenzoyl]piperazine] | more effective than DEET | most effective repellents | some fly death | less overall participation | preference for the control trap | unable to habituate | statistically similar results | less effective, but statistically similar | required | significantly less effective | much higher preference | increased preference | fly mortality (Drosophila melanogaster [1]; one-choice trap, 25% concentration, exposure in the gas phase): relatively insignificant; interaction with control trap in comparison with repellent-treated trap (Drosophila melanogaster [2]; 25% by weight, low participation): more flies interacted with the control trap |
| CCN(CC)C(=O)c1cccc(C)c1 [DEET, N,N-diethyl-m-toluamide, reference compound] | – | – | – | – | – | demonstrated habituation in at least one assay | significantly less repellency | – | – | – | – | – | repellency after prior exposure, 2-choice olfactory assay (Drosophila melanogaster [3]; prior exposure to 25% by weight repellent (18-hour period as printed elsewhere in the source)): statistically similar; duration of efficacy (mosquito): five; affinity for odorant receptor [4]: showing an affinity |
